Patent US10273217B2, “Triazole derivatives” (Hoffmann-La Roche Inc., priority 2015, dated 2019)

Assays:
[1] = target: T1, human EAAT3 (Homo sapiens, UniProt P43005); assay: FLIPR Membrane Potential (FMP) assay, antagonist potency at human EAAT3; format: cell-based; settings: HEK-293 cells stably expressing human EAAT3; L-glutamate as agonist at EC80; Kb from IC50 by Cheng-Prusoff equation
T1 construct: expressed in transfected cells
T1 sequence (P43005 1-524): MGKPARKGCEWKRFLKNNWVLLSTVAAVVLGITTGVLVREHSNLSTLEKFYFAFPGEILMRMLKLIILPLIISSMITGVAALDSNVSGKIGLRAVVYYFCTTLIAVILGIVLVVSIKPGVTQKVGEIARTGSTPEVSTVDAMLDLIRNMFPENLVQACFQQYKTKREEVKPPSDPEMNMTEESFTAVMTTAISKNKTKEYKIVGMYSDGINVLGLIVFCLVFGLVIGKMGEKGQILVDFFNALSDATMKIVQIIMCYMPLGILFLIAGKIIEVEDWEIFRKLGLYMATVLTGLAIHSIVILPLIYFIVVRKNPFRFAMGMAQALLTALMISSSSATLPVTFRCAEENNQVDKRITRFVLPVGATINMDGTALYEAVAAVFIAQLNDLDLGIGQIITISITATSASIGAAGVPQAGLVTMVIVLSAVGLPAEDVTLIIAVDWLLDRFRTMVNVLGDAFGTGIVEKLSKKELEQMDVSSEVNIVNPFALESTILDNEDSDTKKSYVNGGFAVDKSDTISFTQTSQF
Protocol: The FLIPR Membrane Potential (FMP) Assay
HEK-293 cells stably expressing human EAAT3 were seeded at 55 000 cells/well in growth medium (DMEM glutamate free (Invitrogen 11960-044), 1% Pen Strep (10 ml/l GIBCO BRL N°15140-023), 10% FCS non dialysed heat inactivated, 5 mg/l puromycin) in poly-D-lysine treated 96-well black microtiter plates with clear-bottom. After 24 h, the growth medium was removed and 100 μl/well of Krebs buffer (140 mM NaCl, 4.7 mM KCl, 2.5 mM CaCl2, 1.2 mM MgCl2, 11 mM HEPES, 10 mM D-glucose, pH=7.4) added. The cells were then loaded by adding 100 μl/well FMP assay dye (FLIPR Membrane Potential assay reagent, Molecular Devices). The 96-well plates were then incubated at 37° C. for 1 h. The depolarization of the cells will cause more dye to enter in the cells, where it will bind to intracellular proteins and lipids and cause an increase in the fluorescence signal. Antagonist potency at human EAAT3 was determined by using L-glutamate as agonist at a concentration which gives 80% of the maximum response. The antagonists were applied 15 min before the application of the agonist L-glutamate. The assays were performed at room temperature and measurements done by using a Fluorometric Imaging Plate Reader (FLIPR, Molecular Devices) and filter #2. Responses were measured as peak increase in fluorescence minus basal (i.e. fluorescence without addition of L-glutamate). Kb was determined using the Cheng-Prusoff equation Kb=IC50/[1+(A/EC50)], where IC50 is the concentration of the antagonist producing 50% inhibition, A is the concentration of the agonist against which the IC50 is being determined (at EC80) and EC50 is the concentration of the agonist producing 50% […].

SMILES	melting point [°C]	Kb [1] [nM]
CC(C)c1nncn1-c1cc(C(=O)NC(C)(C)C)cc(-c2ccc(F)cc2)c1 [Example 14, N-tert-Butyl-3-(4-fluorophenyl)-5-(3-propan-2-yl-1,2,4-triazol-4-yl)-benzamide]	240.5	75
CC(C)c1nncn1-c1cc(C(=O)NC(C)(C)C2CC2)cc(-c2ccc(F)cc2)c1 [Example 16, N-(2-Cyclopropylpropan-2-yl)-3-(4-fluorophenyl)-5-(3-propan-2-yl-1,2,4-triazol-4-yl)-benzamide]	101	100
CC(C)(C)NC(=O)c1cc(-c2ccc(C(F)(F)F)cc2)cc(-n2cnnc2C(C)(C)C)c1 [Example 10, N-tert-Butyl-3-(3-tert-butyl-1,2,4-triazol-4-yl)-5-[4-(trifluoromethyl)-phenyl]-benzamide]	280.5	160
CC(C)(C)c1nncn1-c1cc(C(=O)NC(C)(C)C2CC2)cc(-c2ccc(C(F)(F)F)cc2)c1 [Example 11, 3-(3-tert-Butyl-1,2,4-triazol-4-yl)-N-(2-cyclopropylpropan-2-yl)-5-[4-(trifluoromethyl)-phenyl]-benzamide]	242.5	180
CC(C)(NC(=O)c1cc(-c2ccc(F)cc2)cc(-n2cnnc2)c1)C(F)(F)F [Example 4, 3-(4-Fluorophenyl)-5-(1,2,4-triazol-4-yl)-N-(1,1,1-trifluoro-2-methylpropan-2-yl)-benzamide]	147	250
CC(C)(C)NC(=O)c1cc(-c2ccc(F)cc2)cc(-n2cnnc2C(C)(C)C)c1 [Example 8, N-tert-Butyl-3-(3-tert-butyl-1,2,4-triazol-4-yl)-5-(4-fluorophenyl)-benzamide]	279	190
CC(C)c1nncn1-c1cc(C(=O)NC(C)(C)C)cc(-c2ccc(C(F)(F)F)cc2)c1 [Example 18, N-tert-Butyl-3-(3-propan-2-yl-1,2,4-triazol-4-yl)-5-[4-(trifluoromethyl)-phenyl]-benzamide]	126	130
CC(C)(NC(=O)c1cc(-c2ccc(F)cc2)cc(-n2cnnc2)c1)C1CC1 [Example 3, N-(2-Cyclopropylpropan-2-yl)-3-(4-fluorophenyl)-5-(1,2,4-triazol-4-yl)-benzamide]	135.5	390
CC(C)c1nncn1-c1cc(C(=O)NC(C)(C)CO)cc(-c2ccc(F)cc2)c1 [Example 20, 3-(4-Fluorophenyl)-N-(1-hydroxy-2-methylpropan-2-yl)-5-(3-propan-2-yl-1,2,4-triazol-4-yl)-benzamide]	171.5	390
CC(C)(C)c1nncn1-c1cc(C(=O)NC(C)(C)C2CC2)cc(-c2ccc(Cl)cc2)c1 [Example 13, 3-(3-tert-Butyl-1,2,4-triazol-4-yl)-5-(4-chlorophenyl)-N-(2-cyclopropylpropan-2-yl)-benzamide]	136.5	290
CC(C)(C)c1nncn1-c1cc(C(=O)NC(C)(C)C2CC2)cc(-c2ccc(F)cc2)c1 [Example 12, 3-(3-tert-Butyl-1,2,4-triazol-4-yl)-N-(2-cyclopropylpropan-2-yl)-5-(4-fluorophenyl)-benzamide]	111	150
CC(C)(C)NC(=O)c1cc(-c2ccc(F)cc2)cc(-n2cnnc2)c1 [Example 2, N-tert-Butyl-3-(4-fluorophenyl)-5-(1,2,4-triazol-4-yl)-benzamide]	204	290
CC(C)c1nncn1-c1cc(C(=O)NC(C)(C)C2CC2)cc(-c2ccc(Cl)cc2)c1 [Example 17, 3-(4-Chlorophenyl)-N-(2-cyclopropyl-propan-2-yl)-5-(3-propan-2-yl-1,2,4-triazol-4-yl)-benzamide]	105	190
CC(C)c1nncn1-c1cc(C(=O)NC(C)(C)C2CC2)cc(-c2ccc(C(F)(F)F)cc2)c1 [Example 19, N-(2-Cyclopropyl-propan-2-yl)-3-(3-propan-2-yl-1,2,4-triazol-4-yl)-5-[4-(trifluoromethyl)-phenyl]-benzamide]	100	220
CC(C)(C)NC(=O)c1cc(-c2ccc(Cl)cc2)cc(-n2cnnc2C(C)(C)C)c1 [Example 9, N-tert-Butyl-3-(3-tert-butyl-1,2,4-triazol-4-yl)-5-(4-chlorophenyl)-benzamide]	292.5	180
CCC(C)(C)NC(=O)c1cc(-c2ccc(F)cc2)cc(-n2cnnc2)c1 [Example 1, 3-(4-Fluorophenyl)-N-(2-methylbutan-2-yl)-5-(1,2,4-triazol-4-yl)-benzamide]	212	88
CC(C)c1nncn1-c1cc(C(=O)NC(C)(C)CO)cc(-c2ccc(Cl)cc2)c1 [Example 21, 3-(4-Chlorophenyl)-N-(1-hydroxy-2-methylpropan-2-yl)-5-(3-propan-2-yl-1,2,4-triazol-4-yl)-benzamide]	180	230

Next, values leading:

melting point [°C]	Kb [1] [nM]	SMILES
100	100	Cc1ccc(-c2cc(C(=O)NC(C)(C)C)cc(-n3cnnc3C(C)C)c2)cc1 [Example 33, N-tert-Butyl-3-(4-methyl-phenyl)-5-(3-propan-2-yl-1,2,4-triazol-4-yl)-benzamide]
163	64	CC(C)(C)NC(=O)c1cc(-c2ccc(Cl)cc2)cc(-n2cnnc2C(C)(C)O)c1 [Example 27, N-tert-Butyl-3-(4-chlorophenyl)-5-[3-(2-hydroxypropan-2-yl)-1,2,4-triazol-4-yl]-benzamide]
161.5	1570	CC1(NC(=O)c2cc(-c3ccc(Cl)cc3)cc(-n3cnnc3CO)c2)CCS(=O)(=O)C1 (racemic) [Example 36, (RS)-3-(4-Chlorophenyl)-5-[3-(hydroxymethyl)-1,2,4-triazol-4-yl]-N-(3-methyl-1,1-dioxothiolan-3-yl)-benzamide]
115	160	CC(C)c1nncn1-c1cc(C(=O)NC(C)(C)C)cc(-c2ccc(F)c(F)c2)c1 [Example 28, N-tert-Butyl-3-(3,4-difluorophenyl)-5-(3-propan-2-yl-1,2,4-triazol-4-yl)-benzamide]
135	100	CC(C)c1nncn1-c1cc(C(=O)NC(C)(C)C)cc(-c2ccc(Cl)c(F)c2)c1 [Example 30, N-tert-Butyl-3-(4-chloro-3-fluorophenyl)-5-(3-propan-2-yl-1,2,4-triazol-4-yl)-benzamide]
290	220	CC(C)c1nncn1-c1cc(C(=O)NC(C)(C)C)cc(-c2ccc(C#N)cc2)c1 [Example 34, N-tert-Butyl-3-(4-cyano-phenyl)-5-(3-propan-2-yl-1,2,4-triazol-4-yl)-benzamide]
210	145	CC(C)(C)NC(=O)c1cc(-c2ccc(Cl)cc2)cc(-n2cnnc2CO)c1 [Example 26, N-tert-Butyl-3-(4-chlorophenyl)-5-[3-(hydroxymethyl)-1,2,4-triazol-4-yl]-benzamide]
120	150	CC(C)(NC(=O)c1cc(-c2ccc(Cl)cc2)cc(-n2cnnc2CO)c1)C1CC1 [Example 37, 3-(4-Chlorophenyl)-N-(2-cyclopropyl-propan-2-yl)-5-[3-(hydroxymethyl)-1,2,4-triazol-4-yl]-benzamide]
120	130	CC(C)c1nncn1-c1cc(C(=O)NC(C)(C)C)cc(-c2ccc(C3CC3)cc2)c1 [Example 35, N-tert-Butyl-3-(4-cyclopropyl-phenyl)-5-(3-propan-2-yl-1,2,4-triazol-4-yl)-benzamide]
95	54	CCC(C)(C)NC(=O)c1cc(-c2ccc(F)cc2)cc(-n2cnnc2C(C)C)c1 [Example 24, 3-(4-Fluorophenyl)-N-(2-methylbutan-2-yl)-5-(3-propan-2-yl-1,2,4-triazol-4-yl)-benzamide]
